Reference: patent publication US9623125B2, “Controlled synthesis of polyglutamates with low polydispersity and versatile architectures” (Fundacion de la Comunidad Valenciana “Centro De …, priority 2011, dated 2017)

Assay: Stability of NCA under different storage conditions
Format: physicochemical
Parameters: key: a “−” symbol means the monomer was found already polymerized/degraded; “+” means monomer was found to be stable
Protocol: Absence of HCl in the purified NCAs was confirmed by means of a silver nitrate solution. The presence of HCl can be identified by the precipitation of silver chloride when some drops of a solution 1M of AgNO3 are added to a solution of the monomer. The purity of the NCA is the main criteria to ensure long term storage. This issue was corroborated with stability studies of the NCA under different storage conditions.

For `O=C(CCC1NC(=O)OC1=O)OCc1ccccc1` (centres unmarked) [NCA, Benzyl 3-(2,5-dioxooxazol-4-il)propanoate], the “Stability of NCA on storage” value (4° C., 5 d) was “+”, the “Stability of NCA on storage” value (4° C., 6 d) was “+” and the “Stability of NCA on storage” value (4° C., 8d) was “−”. The “Stability of NCA on storage” value (4° C., 10 d) was “−”, the “Stability of NCA on storage” value (4° C., 11 d) was “−” and the “Stability of NCA on storage” value (4° C., 20 d) was “−”. The “Stability of NCA on storage” value (4° C., 50 d) was “−”, the “Stability of NCA on storage” value (4° C./Ar, 5 d) was “+” and the “Stability of NCA on storage” value (4° C./Ar, 6 d) was “+”. For the same compound, the “Stability of NCA on storage” value (4° C./Ar, 7 d) was “+”, the “Stability of NCA on storage” value (4° C./Ar, 8d) was “+” and the “Stability of NCA on storage” value (4° C./Ar, 10 d) was “+”. For the same compound, the “Stability of NCA on storage” value (4° C./Ar, 11 d) was “+”, the “Stability of NCA on storage” value (R.T, 5 d) was “−” and the “Stability of NCA on storage” value (R.T, 6 d) was “−”. For the same compound, the “Stability of NCA on storage” value (R.T, 7 d) was “−”, the “Stability of NCA on storage” value (R.T, 8d) was “−” and the “Stability of NCA on storage” value (R.T, 10 d) was “−”. The “Stability of NCA on storage” value (R.T, 11 d) was “−”, the “Stability of NCA on storage” value (R.T, 20 d) was “−” and the “Stability of NCA on storage” value (R.T, 50 d) was “−”. For the same compound, the “Stability of NCA on storage” value (R.T/Ar, 6 d) was “−”, the “Stability of NCA on storage” value (R.T/Ar, 7 d) was “−” and the “Stability of NCA on storage” value (R.T/Ar, 8d) was “−”. For the same compound, the “Stability of NCA on storage” value (R.T/Ar, 10 d) was “−”, the “Stability of NCA on storage” value (R.T/Ar, 11 d) was “−” and the “Stability of NCA on storage” value (R.T/Ar, 20 d) was “−”. The “Stability of NCA on storage” value (R.T/Ar, 50 d) was “−”, the “Stability of NCA on storage” value (−23° C., 5 d) was “+” and the “Stability of NCA on storage” value (−23° C., 6 d) was “+”. For the same compound, the “Stability of NCA on storage” value (−23° C., 7 d) was “+”, the “Stability of NCA on storage” value (−23° C., 8d) was “+” and the “Stability of NCA on storage” value (−23° C., 10 d) was “+”. The “Stability of NCA on storage” value (−23° C., 11 d) was “+”, the “Stability of NCA on storage” value (−23° C., 20 d) was “+” and the “Stability of NCA on storage” value (−23° C., 50 d) was “+”. For the same compound, the “Stability of NCA on storage” value (−23° C./Ar, 5 d) was “+”, the “Stability of NCA on storage” value (−23° C./Ar, 6 d) was “+” and the “Stability of NCA on storage” value (−23° C./Ar, 7 d) was “+”. The “Stability of NCA on storage” value (−23° C./Ar, 8d) was “+”, the “Stability of NCA on storage” value (−23° C./Ar, 10 d) was “+” and the “Stability of NCA on storage” value (−23° C./Ar, 11 d) was “+”. For the same compound, the “Stability of NCA on storage” value (−23° C./Ar, 20 d) was “+” and the “Stability of NCA on storage” value (−23° C./Ar, 50 d) was “+”.
